Experimental data from patent publication US4701448A, “Metal salt of organic phosphate and an antihyperlipemic agent containing the same” (Asahi Denka Kogyo Kabushiki Kaisha, priority 1985, dated 1987).
Counter-ions that a name gives are not always drawn.

What was measured:
serum cholesterol = assay: Serum cholesterol lowering activity, oral, rabbit, 5 successive days; type: in vivo; details: two times a day, 5 days
Method: (1) Serum cholesterol lowering activity the metal salt of organic phosphate according to the present invention was orally administered to a rabbit (body weight of about 3 Kg) two times a day (at 9:00 a.m. and 4:00 p.m.) for 5 successive days. After 5 days, blood was sampled and the total cholesterol value in serum was measured in a conventional manner.

[1] = Stability, 5 weeks at 45° C. and humidity of 80% (HPLC remaining rate); type: physicochemical; details: after 5 weeks, humidity of 80%; for remaining at 840 h: solid, 80% humidity; for Remaining rate: 50400 min
Method: One gram each of CB3A, CK3A and various metal salts thereof was placed in a beaker and the beaker was allowed to stand for 5 weeks in a constant temperature and humidity bath controlled at a temperature of 45° C. and a humidity of 80%. After 5 weeks, a remaining rate of the compound was analyzed quantitatively with a high performance liquid chromatography "Tri rotar" manufactured by Nippon Bunko K. K. (Japan).
A0 = initial amount of the compound prior to standing in the constan
temperature and humidity bath
A1 = final amount of the compound after 5 weeks

[2] = Water solubility, hygroscopic property and stability (statements in words); type: physicochemical
synthesis of cholesterol = details: in words; Japanese Patent Application No. 165490/1983, J. Antibiotics 38, 328-332 (1985); cited from earlier work
mouse = assay: Acute toxicity, mouse; type: in vivo
Description: (§1) The acute toxicity of the metal salt of CB3A and of CK3A was examined by orally or peritoneally administrating an aqueous solution or dispersion thereof the results are shown in Table 2.
(§2) a . . . per os (oral administration)
(§3) b . . . intraperitoneal injection

rat = assay: Acute toxicity, rat; type: in vivo
Description: as §1, §2, §3

Acute toxicity, mouse = type: in vivo; details: in vivo
Description: as §1, §2, §3

Acute toxicity, rat = type: in vivo; details: in vivo
Description: as §1, §2, §3

[3] = Absorbability and effect (statement in words)

Row | Structure (SMILES) | Total Serum cholesterol lowering rate (serum cholesterol; 1.5 mg/kg/day) [%] | Total Serum cholesterol lowering rate (serum cholesterol; 6 mg/kg/day) [%] | stability [2] | water solubility [2] | hygroscopic property [2] | LD50 (mouse; intraperitoneal injection) [mg/kg] | LD50 (mouse; per os (oral administration)) [mg/kg] | LD50 (rat; intraperitoneal injection) [mg/kg] | LD50 (rat; per os (oral administration)) [mg/kg] | Remaining rate [1] [%] | other results
1 | CCC(C)C(=O)OC1CCC=C2C=CC(C)C(CCC(CC(O)CC(=O)OC)OP(=O)(O)O)C21 (centres unmarked) [CB3A methyl ester-2K salt, Dipotassium salt of CB3A methyl ester] | 19.5 | 33.8 | excellent | excellent |  |  |  |  |  |  | remaining at 840 h [1]: 84%
2 | CCC(C)C(=O)OC1CCC=C2C=CC(C)C(CCC(CC(O)CC(=O)OC)OP(=O)(O)O)C21 (centres unmarked) [CB3A methyl ester-Ca salt, Calcium salt of CB3A methyl ester] | 23.0 | 40.6 | particularly excellent |  | no hygroscopic property |  |  |  |  |  | 
3 | CCC(C)C(=O)OC1CCC=C2C=CC(C)C(CCC(CC(O)CC(=O)OC)OP(=O)(O)O)C21 (centres unmarked) [CB3A methyl ester] |  |  |  |  |  |  |  |  |  |  | activity of inhibiting the synthesis of cholesterol (synthesis of cholesterol): strong activity of inhibiting the synthesis of cholesterol
4 | CCC(C)C(=O)OC1CCC=C2C=CC(C)C(CCC(CC(O)CC(=O)O)OP(=O)(O)O)C21 (centres unmarked) [CB3A-1.5Ba salt, Sesquibarium salt of CB3A] | 21.3 | 36.6 | particularly excellent |  | no hygroscopic property |  |  |  |  |  | 
5 | CCC(C)C(=O)OC1CCC=C2C=CC(C)C(CCC(CC(O)CC(=O)O)OP(=O)(O)O)C21 (centres unmarked) [CB3A-1.5Ca salt, Sesquicalcium salt of CB3A] | 23.2 | 40.2 | particularly excellent |  | no hygroscopic property | > 500 | > 2000 | > 500 | > 2000 | 97 | 
6 | CCC(C)C(=O)OC1CCC=C2C=CC(C)C(CCC(CC(O)CC(=O)O)OP(=O)(O)O)C21 (centres unmarked) [CB3A-1.5Mg salt] | 21.1 | 36.3 |  |  |  |  |  |  |  |  | 
7 | CCC(C)C(=O)OC1CCC=C2C=CC(C)C(CCC(CC(O)CC(=O)O)OP(=O)(O)O)C21 (centres unmarked) [CB3A-1K salt, Monopotassium salt of CB3A] | 19.6 | 33.7 | excellent | excellent |  |  |  |  |  |  | 
8 | CCC(C)C(=O)OC1CCC=C2C=CC(C)C(CCC(CC(O)CC(=O)O)OP(=O)(O)O)C21 (centres unmarked) [CB3A-1Na salt] |  |  |  |  |  |  |  |  |  | 74 | 
9 | CCC(C)C(=O)OC1CCC=C2C=CC(C)C(CCC(CC(O)CC(=O)O)OP(=O)(O)O)C21 (centres unmarked) [CB3A-2K salt, Dipotassium salt of CB3A] | 19.1 | 34.2 | excellent | excellent |  |  |  |  |  |  | 
10 | CCC(C)C(=O)OC1CCC=C2C=CC(C)C(CCC(CC(O)CC(=O)O)OP(=O)(O)O)C21 (centres unmarked) [CB3A-2Na salt] |  |  |  |  |  |  |  |  |  | 78 | 
11 | CCC(C)C(=O)OC1CCC=C2C=CC(C)C(CCC(CC(O)CC(=O)O)OP(=O)(O)O)C21 (centres unmarked) [CB3A-3K salt, Tripotassium salt of CB3A] | 19.4 | 33.9 | excellent | excellent |  |  |  |  |  |  | LD50 (Acute toxicity, mouse; ip, intraperitoneal injection): > 500 mg/kg; LD50 (Acute toxicity, mouse; per os (oral administration)): > 2000 mg/kg; LD50 (Acute toxicity, rat; ip, intraperitoneal injection): > 500 mg/kg; LD50 (Acute toxicity, rat; per os (oral administration)): > 2000 mg/kg
12 | CCC(C)C(=O)OC1CCC=C2C=CC(C)C(CCC(CC(O)CC(=O)O)OP(=O)(O)O)C21 (centres unmarked) [CB3A-3Na salt, Trisodium salt of CB3A] | 18.5 | 34.3 | excellent | excellent |  | > 500 | > 2000 | > 500 | > 2000 | 82 | 
13 | CCC(C)C(=O)OC1CCC=C2C=CC(C)C(CCC(CC(O)CC(=O)O)OP(=O)(O)O)C21 (centres unmarked) [CB3A-Al salt, Aluminum salt of CB3A] | 24.2 | 41.6 | particularly excellent |  | no hydroscopic property | > 500 | > 2000 | > 500 | > 2000 | 98 | 
14 | CCC(C)C(=O)OC1CC(C)C=C2C=CC(C)C(CCC(CC(O)CC(=O)OC)OP(=O)(O)O)C21 (centres unmarked) [CK3A methyl ester-2K salt, Dipotassium salt of CK3A methyl ester] | 18.7 | 34.7 | excellent | excellent |  |  |  |  |  |  | remaining at 840 h [1]: 83%
15 | CCC(C)C(=O)OC1CC(C)C=C2C=CC(C)C(CCC(CC(O)CC(=O)OC)OP(=O)(O)O)C21 (centres unmarked) [CK3A methyl ester-Ca salt, Calcium salt of CK3A methyl ester] | 24.9 | 39.2 | particularly excellent |  | no hygroscopic property |  |  |  |  |  | 
16 | CCC(C)C(=O)OC1CC(C)C=C2C=CC(C)C(CCC(CC(O)CC(=O)OC)OP(=O)(O)O)C21 (centres unmarked) [CK3A methyl ester] |  |  |  |  |  |  |  |  |  |  | activity of inhibiting the synthesis of cholesterol (synthesis of cholesterol): strong activity of inhibiting the synthesis of cholesterol
17 | CCC(C)C(=O)OC1CC(C)C=C2C=CC(C)C(CCC(CC(O)CC(=O)O)OP(=O)(O)O)C21 (centres unmarked) [CK3A, reference compound] | 9.7 | 24.4 | unstable |  |  | > 500 | > 2000 | > 500 | > 2000 | 13 | absorbability and effect [3]: unsatisfactory; activity of inhibiting the synthesis of cholesterol (synthesis of cholesterol): strong activity of inhibiting the synthesis of cholesterol
18 | CCC(C)C(=O)OC1CC(C)C=C2C=CC(C)C(CCC(CC(O)CC(=O)O)OP(=O)(O)O)C21 (centres unmarked) [CK3A-1.5Ba salt, Sesquibarium salt of CK3A] | 21.1 | 36.6 | particularly excellent |  | no hygroscopic property |  |  |  |  |  | 
19 | CCC(C)C(=O)OC1CC(C)C=C2C=CC(C)C(CCC(CC(O)CC(=O)O)OP(=O)(O)O)C21 (centres unmarked) [CK3A-1.5Ca salt, Sesquicalcium salt of CK3A] | 24.5 | 39.9 | particularly excellent |  | no hygroscopic property | > 500 | > 2000 | > 500 | > 2000 | 96 | 
20 | CCC(C)C(=O)OC1CC(C)C=C2C=CC(C)C(CCC(CC(O)CC(=O)O)OP(=O)(O)O)C21 (centres unmarked) [CK3A-1.5Mg salt] | 22.1 | 36.3 |  |  |  |  |  |  |  |  | 
21 | CCC(C)C(=O)OC1CC(C)C=C2C=CC(C)C(CCC(CC(O)CC(=O)O)OP(=O)(O)O)C21 (centres unmarked) [CK3A-3K salt, Tripotassium salt of CK3A] | 18.9 | 34.7 | excellent | excellent |  |  |  |  |  | 85 | LD50 (Acute toxicity, mouse; ip, intraperitoneal injection): > 500 mg/kg; LD50 (Acute toxicity, mouse; per os (oral administration)): > 2000 mg/kg; LD50 (Acute toxicity, rat; ip, intraperitoneal injection): > 500 mg/kg; LD50 (Acute toxicity, rat; per os (oral administration)): > 2000 mg/kg
22 | CCC(C)C(=O)OC1CC(C)C=C2C=CC(C)C(CCC(CC(O)CC(=O)O)OP(=O)(O)O)C21 (centres unmarked) [CK3A-3Na salt, Trisodium salt of CK3A] | 17.1 | 30.0 | excellent | excellent |  | > 500 | > 2000 | > 500 | > 2000 |  | 
23 | CCC(C)C(=O)OC1CC(C)C=C2C=CC(C)C(CCC(CC(O)CC(=O)O)OP(=O)(O)O)C21 (centres unmarked) [CK3A-Al salt, Aluminum salt of CK3A] | 23.4 | 41.6 | particularly excellent |  | no hygroscopic property | > 500 | > 2000 | > 500 | > 2000 | 98 | 
